{
  "source": "ChEMBL document CHEMBL5465560",
  "about": "“Selectivity Literature for EUbOPEN Chemogenomic Library” (2024)",
  "key": {"Cannabinoid receptor 1": {"target": "Cannabinoid receptor 1 (Homo sapiens, UniProt P21554)", "sequence (P21554 whole entry)": "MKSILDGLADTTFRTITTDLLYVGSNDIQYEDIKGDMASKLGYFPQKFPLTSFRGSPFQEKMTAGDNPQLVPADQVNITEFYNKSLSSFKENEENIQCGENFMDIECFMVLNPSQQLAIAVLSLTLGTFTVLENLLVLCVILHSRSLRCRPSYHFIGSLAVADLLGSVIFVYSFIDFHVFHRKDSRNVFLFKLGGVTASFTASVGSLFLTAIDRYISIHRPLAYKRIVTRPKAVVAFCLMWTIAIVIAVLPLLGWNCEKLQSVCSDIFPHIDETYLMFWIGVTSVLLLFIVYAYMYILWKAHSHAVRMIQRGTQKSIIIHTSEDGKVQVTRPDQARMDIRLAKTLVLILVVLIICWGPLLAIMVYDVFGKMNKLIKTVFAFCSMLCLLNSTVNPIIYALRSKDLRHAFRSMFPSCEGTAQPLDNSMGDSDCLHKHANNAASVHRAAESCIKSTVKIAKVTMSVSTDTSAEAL", "assay": "Selectivity interaction (Panel of non-epigenetic targets (kinases, GPCRs, ion channels, and transporters, Eurofins) ) EUB0000271b CNR1", "details": "at 1 µM"}, "[1]": {"target": "Cyclin-dependent kinase 3 (Homo sapiens) (UniProt Q00526)", "sequence (Q00526 whole entry, looked up)": "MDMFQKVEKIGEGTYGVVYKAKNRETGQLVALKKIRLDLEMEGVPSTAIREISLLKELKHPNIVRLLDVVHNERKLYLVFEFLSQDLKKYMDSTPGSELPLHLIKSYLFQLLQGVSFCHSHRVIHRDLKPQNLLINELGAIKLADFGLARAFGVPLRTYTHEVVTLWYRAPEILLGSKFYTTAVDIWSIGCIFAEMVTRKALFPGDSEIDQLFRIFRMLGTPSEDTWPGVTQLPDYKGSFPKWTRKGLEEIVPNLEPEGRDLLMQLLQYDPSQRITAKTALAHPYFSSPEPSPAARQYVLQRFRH", "assay": "Selectivity interaction (KinomeScan (DiscoverX)) EUB0000655a CDK3", "details": "at 10 µM"}, "[2]": {"target": "Serine/threonine-protein kinase MRCK beta (Homo sapiens) (UniProt Q9Y5S2)", "sequence (Q9Y5S2 whole entry)": "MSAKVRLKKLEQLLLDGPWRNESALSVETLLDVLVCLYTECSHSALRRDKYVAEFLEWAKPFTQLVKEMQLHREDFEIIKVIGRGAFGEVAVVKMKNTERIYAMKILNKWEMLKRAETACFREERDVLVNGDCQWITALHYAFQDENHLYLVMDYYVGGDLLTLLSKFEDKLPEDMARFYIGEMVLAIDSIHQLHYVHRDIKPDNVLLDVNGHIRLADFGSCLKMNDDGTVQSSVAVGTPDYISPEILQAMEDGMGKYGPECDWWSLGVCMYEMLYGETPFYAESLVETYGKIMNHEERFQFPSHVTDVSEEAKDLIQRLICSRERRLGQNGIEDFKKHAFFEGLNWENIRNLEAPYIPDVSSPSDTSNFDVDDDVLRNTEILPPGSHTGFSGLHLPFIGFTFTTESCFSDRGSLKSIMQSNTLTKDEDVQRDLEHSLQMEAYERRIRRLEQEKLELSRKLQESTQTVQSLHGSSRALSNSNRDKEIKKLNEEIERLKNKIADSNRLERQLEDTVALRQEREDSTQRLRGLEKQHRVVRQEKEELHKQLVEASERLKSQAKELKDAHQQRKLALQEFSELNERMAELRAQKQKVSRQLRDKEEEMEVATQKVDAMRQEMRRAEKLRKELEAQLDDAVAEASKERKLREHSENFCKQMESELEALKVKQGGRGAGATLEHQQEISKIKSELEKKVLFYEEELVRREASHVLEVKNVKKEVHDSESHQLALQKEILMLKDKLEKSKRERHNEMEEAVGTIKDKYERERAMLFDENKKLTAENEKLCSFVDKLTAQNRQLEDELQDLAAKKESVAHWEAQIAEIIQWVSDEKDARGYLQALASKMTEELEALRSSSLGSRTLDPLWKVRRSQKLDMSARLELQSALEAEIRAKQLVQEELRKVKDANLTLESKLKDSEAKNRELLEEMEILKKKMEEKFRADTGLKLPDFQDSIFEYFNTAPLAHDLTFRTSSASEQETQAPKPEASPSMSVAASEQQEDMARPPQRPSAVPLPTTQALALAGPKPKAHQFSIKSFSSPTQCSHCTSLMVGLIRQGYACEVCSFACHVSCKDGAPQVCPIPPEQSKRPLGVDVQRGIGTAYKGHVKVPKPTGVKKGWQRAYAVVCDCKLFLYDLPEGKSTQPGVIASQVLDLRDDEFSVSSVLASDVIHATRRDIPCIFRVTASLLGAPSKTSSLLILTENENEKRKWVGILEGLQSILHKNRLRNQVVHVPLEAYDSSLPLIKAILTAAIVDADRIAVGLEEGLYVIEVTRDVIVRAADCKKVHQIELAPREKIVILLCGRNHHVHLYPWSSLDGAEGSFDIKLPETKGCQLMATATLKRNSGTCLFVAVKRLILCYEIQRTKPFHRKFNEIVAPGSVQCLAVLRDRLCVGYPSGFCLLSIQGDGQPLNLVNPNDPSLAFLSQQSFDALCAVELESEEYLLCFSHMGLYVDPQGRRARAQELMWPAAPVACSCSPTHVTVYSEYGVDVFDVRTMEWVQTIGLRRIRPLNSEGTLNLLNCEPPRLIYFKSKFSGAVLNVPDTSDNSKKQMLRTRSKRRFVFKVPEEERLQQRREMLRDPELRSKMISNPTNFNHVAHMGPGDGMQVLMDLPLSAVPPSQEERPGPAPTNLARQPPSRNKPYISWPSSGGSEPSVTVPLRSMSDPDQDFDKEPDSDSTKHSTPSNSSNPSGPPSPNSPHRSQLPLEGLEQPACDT", "assay": "Selectivity interaction (KinomeScan (DiscoverX)) EUB0000655a CDC42BPB", "details": "at 10 µM"}, "[3]": {"target": "Phosphatidylinositol 4-kinase beta (Homo sapiens, UniProt Q9UBF8)", "sequence (Q9UBF8 2-816 limits assumed)": "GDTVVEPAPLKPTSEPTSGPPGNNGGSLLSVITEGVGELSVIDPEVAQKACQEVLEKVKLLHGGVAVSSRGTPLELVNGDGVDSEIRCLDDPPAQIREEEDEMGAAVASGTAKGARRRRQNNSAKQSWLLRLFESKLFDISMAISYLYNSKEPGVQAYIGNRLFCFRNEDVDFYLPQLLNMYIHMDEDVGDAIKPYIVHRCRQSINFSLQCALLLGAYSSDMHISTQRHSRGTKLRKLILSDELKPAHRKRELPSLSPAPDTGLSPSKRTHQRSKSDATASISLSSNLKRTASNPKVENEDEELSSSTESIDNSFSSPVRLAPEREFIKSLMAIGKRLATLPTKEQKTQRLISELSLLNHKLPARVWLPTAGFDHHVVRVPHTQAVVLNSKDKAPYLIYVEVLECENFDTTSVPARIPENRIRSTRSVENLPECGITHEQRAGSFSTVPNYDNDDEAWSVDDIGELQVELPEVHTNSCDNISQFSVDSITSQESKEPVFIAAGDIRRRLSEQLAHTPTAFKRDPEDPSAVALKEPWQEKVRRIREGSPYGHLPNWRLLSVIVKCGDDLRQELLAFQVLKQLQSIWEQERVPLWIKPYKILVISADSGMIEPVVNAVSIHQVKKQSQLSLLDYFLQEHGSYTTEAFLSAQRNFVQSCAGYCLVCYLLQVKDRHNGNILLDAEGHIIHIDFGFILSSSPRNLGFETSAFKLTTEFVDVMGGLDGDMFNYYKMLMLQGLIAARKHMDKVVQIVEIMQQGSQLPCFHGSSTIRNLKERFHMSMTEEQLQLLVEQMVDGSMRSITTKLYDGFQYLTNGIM", "assay": "Selectivity interaction (KinomeScan (DiscoverX)) EUB0001619a PI4KB", "details": "at 1 µM"}, "[4]": {"target": "Epithelial discoidin domain-containing receptor 1 (Homo sapiens) (UniProt Q08345)", "sequence (Q08345 whole entry, the tested form may be a part)": "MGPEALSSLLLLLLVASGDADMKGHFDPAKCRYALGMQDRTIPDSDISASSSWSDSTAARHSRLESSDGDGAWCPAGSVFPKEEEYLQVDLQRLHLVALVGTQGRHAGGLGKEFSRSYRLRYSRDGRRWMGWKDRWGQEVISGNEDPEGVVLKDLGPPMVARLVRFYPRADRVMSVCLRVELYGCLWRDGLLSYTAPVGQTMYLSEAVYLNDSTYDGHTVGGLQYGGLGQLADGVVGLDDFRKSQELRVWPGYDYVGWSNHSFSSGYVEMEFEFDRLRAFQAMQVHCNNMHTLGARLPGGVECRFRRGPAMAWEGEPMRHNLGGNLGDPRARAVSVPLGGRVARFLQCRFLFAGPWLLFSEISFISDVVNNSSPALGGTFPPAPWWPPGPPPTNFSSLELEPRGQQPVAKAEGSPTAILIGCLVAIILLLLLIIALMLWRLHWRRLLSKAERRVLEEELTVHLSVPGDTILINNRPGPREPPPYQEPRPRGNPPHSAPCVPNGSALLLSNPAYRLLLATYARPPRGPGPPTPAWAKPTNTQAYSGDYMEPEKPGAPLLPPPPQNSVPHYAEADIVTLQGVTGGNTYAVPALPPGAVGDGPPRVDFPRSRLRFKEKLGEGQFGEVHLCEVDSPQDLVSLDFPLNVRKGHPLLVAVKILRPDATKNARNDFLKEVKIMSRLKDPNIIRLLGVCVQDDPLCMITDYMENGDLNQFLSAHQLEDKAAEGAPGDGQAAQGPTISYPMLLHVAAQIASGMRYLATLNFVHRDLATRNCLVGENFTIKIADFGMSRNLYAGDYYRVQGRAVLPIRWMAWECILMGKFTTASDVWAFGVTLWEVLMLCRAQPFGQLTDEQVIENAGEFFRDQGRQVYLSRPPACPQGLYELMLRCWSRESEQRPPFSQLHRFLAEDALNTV", "assay": "Selectivity interaction (KinomeScan (DiscoverX)) EUB0000045b DDR1"}, "[5]": {"target": "T1, Serine/threonine-protein kinase Nek1 (Homo sapiens) (UniProt Q96PY6)", "T1 sequence (whole entry)": "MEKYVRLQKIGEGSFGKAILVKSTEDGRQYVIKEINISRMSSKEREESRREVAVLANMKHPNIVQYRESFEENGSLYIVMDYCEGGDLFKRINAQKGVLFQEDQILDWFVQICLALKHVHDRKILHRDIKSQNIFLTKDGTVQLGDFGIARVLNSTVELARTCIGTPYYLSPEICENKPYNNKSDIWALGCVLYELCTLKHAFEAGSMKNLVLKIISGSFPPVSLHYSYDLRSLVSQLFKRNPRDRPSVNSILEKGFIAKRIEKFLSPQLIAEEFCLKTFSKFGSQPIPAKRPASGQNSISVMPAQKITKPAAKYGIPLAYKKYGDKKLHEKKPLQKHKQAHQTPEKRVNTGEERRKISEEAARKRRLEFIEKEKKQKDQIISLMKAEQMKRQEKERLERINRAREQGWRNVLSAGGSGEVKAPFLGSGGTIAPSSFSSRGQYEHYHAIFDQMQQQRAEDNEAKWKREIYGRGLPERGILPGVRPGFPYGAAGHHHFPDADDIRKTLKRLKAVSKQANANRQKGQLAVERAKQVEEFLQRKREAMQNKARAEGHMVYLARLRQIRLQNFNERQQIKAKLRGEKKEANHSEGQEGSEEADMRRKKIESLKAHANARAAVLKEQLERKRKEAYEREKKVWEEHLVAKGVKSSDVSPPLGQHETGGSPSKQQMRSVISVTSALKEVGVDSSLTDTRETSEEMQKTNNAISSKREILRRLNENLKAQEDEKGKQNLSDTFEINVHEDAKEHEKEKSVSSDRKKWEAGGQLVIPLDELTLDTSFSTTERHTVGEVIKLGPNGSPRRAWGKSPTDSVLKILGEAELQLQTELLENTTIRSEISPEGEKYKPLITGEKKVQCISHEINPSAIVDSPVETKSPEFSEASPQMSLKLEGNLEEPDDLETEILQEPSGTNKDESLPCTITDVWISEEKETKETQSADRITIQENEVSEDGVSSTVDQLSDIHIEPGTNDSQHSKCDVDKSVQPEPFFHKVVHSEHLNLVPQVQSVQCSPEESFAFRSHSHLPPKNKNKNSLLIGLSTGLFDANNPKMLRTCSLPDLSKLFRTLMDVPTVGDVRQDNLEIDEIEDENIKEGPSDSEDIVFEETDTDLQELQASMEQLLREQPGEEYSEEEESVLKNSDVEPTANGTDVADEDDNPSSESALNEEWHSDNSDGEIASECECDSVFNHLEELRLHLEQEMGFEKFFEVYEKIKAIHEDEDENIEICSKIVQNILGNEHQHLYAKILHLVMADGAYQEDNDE", "details": "at 10 µM"}, "[6]": {"target": "T2, Phosphatidylinositol 5-phosphate 4-kinase type-2 beta (Homo sapiens) (UniProt P78356)", "T2 sequence (whole entry)": "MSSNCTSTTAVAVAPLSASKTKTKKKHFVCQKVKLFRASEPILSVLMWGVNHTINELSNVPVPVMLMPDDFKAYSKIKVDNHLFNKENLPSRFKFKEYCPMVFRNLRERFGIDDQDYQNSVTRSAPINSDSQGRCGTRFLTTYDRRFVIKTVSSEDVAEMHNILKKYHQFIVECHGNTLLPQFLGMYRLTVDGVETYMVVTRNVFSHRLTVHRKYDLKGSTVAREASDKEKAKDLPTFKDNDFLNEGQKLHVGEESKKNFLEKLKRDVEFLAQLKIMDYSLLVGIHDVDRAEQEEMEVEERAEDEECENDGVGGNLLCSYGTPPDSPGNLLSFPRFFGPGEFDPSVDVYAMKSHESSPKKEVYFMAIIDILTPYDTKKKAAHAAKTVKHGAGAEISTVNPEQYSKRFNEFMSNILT", "assay": "Selectivity interaction (KinomeScan (DiscoverX)) EUB0000666a PIP4K2B", "details": "at 10 µM"}, "[7]": {"target": "Interferon-induced, double-stranded RNA-activated protein kinase (Homo sapiens) (UniProt P19525)", "sequence (P19525 whole entry)": "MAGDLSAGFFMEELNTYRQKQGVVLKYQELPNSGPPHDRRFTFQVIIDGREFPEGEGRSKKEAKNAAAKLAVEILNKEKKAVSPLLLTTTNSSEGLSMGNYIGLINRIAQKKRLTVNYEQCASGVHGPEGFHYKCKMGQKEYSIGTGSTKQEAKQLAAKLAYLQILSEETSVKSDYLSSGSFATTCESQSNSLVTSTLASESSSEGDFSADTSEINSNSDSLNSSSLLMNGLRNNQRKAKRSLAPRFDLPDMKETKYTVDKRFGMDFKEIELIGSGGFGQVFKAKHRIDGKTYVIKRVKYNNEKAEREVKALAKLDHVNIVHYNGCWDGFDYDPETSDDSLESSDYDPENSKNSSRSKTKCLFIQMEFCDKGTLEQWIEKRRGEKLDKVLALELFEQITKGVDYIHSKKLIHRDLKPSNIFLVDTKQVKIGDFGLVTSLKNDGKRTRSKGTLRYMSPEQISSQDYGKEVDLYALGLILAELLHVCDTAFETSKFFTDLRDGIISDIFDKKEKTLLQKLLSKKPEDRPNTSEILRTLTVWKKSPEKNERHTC", "assay": "Selectivity interaction (KinomeScan (DiscoverX)) EUB0000695a EIF2AK2", "details": "at 100 nM"}},
  "data": [
    {"smiles": "Cc1cc(C)cc([C@@H]2c3cc(C)ccc3NC(=O)CN2C(=O)c2ccc(Br)s2)c1", "values": [
      {"measurement": "% of inhibition", "setting": "Cannabinoid receptor 1", "value": -20, "unit": "%"}
    ]},
    {"smiles": "CN(C)CCOc1ccc(-c2nc(-c3ccncc3)c(-c3ccc4c(c3)CC/C4=N\\O)[nH]2)cc1", "values": [
      {"measurement": "% of control", "setting": "[1]", "value": 98, "unit": "%"},
      {"measurement": "% of control", "setting": "[2]", "value": 89, "unit": "%"}
    ]},
    {"smiles": "N#Cc1cccc(-c2c[nH]c3ncnc(N4CCOCC4)c23)c1", "values": [
      {"measurement": "% of control", "setting": "[3]", "value": 71, "unit": "%"}
    ]},
    {"smiles": "C=CC(=O)Nc1cc(-n2c(=O)ccc3cnc4ccc(-c5ccc(NS(C)(=O)=O)cc5)cc4c32)ccc1C", "values": [
      {"measurement": "% of control", "setting": "[4]; at 1 µM", "value": 100, "unit": "%"},
      {"measurement": "% of control", "setting": "[4]; at 10 µM", "value": 75, "unit": "%"}
    ]},
    {"smiles": "COCC(=O)NC/C=C/c1ccc2ncnc(Nc3ccc(Oc4ccc(C)nc4)c(C)c3)c2c1", "note": "[CP-724714]", "values": [
      {"measurement": "% of control", "setting": "[5]", "value": 83, "unit": "%"}
    ]},
    {"smiles": "O=C(NOC[C@H](O)CO)c1ccc(F)c(F)c1Nc1ccc(I)cc1F", "values": [
      {"measurement": "% of control", "setting": "[6]", "value": 100, "unit": "%"}
    ]},
    {"smiles": "Cc1cc(F)c(C(=O)Nc2cccc(-c3nncn3C(C)C)n2)cc1-n1cnc(C2CC2)c1", "values": [
      {"measurement": "% of control", "setting": "[7]", "value": 100, "unit": "%"}
    ]}
  ]
}
